Key:
[1] = tested on: relapsed/refractory acute myeloid leukemia (AML) patient-derived xenograft; test: PDX model of relapsed/refractory AML, survival; format: in vivo, mice; details: R/R AML PDX; 30 mg/kg QDx5
Description: Anti-malignancy activity of an anti-CD45-ADC was assessed using a patient-derived xenograft (PDX) model of relapsed/refractory acute myeloid leukemia (AML). A single dose of anti-CD45-ADC (Ab5-DGN549) was administered to a group of mice when tumor levels reached ˜10% in peripheral blood, around day 24. Control groups received either PBS, isotype-ADC, CD45 mAb, or ARA-C at 30 mg/kg QDx5. Long-term, disease-free survival was monitored.
The anti-malignancy activity was assessed in a patient-derived xenograft (PDX) model of relapsed/refractory acute myeloid leukemia (AML).

[2] = tested on: recurrent angioimmunoblastic T-cell lymphoma patient-derived xenograft; test: PDX model of recurrent angioimmunoblastic T-cell lymphoma, survival; format: in vivo, mice
Description: Anti-CD45-ADC was further tested in a PDX model of recurrent angioimmunoblastic T-cell lymphoma. A single dose of anti-CD45-ADC (Ab5-DGN549) was administered to a group of mice when tumor levels reached ˜10% in peripheral blood, around day 27. Control groups received either PBS, isotype-ADC, CD45 mAb, ARA-C at 30 mg/kg QDx5, or Dexamethasone at 5 mg/kg Q3Dx10. Long-term disease survival was monitored.

[3] = tested on: erythroid-specific BCL11A enhancer-edited CD34+ cells; test: Conditioning and engraftment of BCL11A enhancer-edited CD34+ cells in rhesus macaques; format: in vivo; details: busulfan 5.5 mg/kg×4 days, 25-34 weeks
Description: Rhesus macaques were treated with a single dose of anti-CD45-ADC (Ab5-DGN549) at either 0.2 or 0.3 mg/kg followed by engraftment of erythroid-specific BCL11A enhancer-edited CD34+ cells.
For transplant studies, rhesus macaque CD34+ HSPCs were electroporated with 3×NLS SpCas9 protein and two RNAs targeting the +55 and +58 BCL11A erythroid enhancers.
A similar experiment was performed in Rhesus macaques. Rhesus macaques were treated with either 0.2 or 0.3 mg/kg of an anti-CD45-ADC as a single IV bolus. At day 10, the macaques underwent an HSC transplant with autologous gene-edited BCL11a enhancer −/− cells, and were monitored over time (FIG. 15A). A cohort of macaques were treated with Busulfan (5.5-6 mg/kg QDx4) as a control.
Two additional rhesus macaques were conditioned with 0.2 mg/kg anti-CD45 ADC and infused with autologous HSPCs transduced with a barcoded lentiviral vector.

Nc1ccn([C@@H]2O[C@H](CO)[C@@H](O)[C@@H]2O)c(=O)n1 [ARA-C, reference compound]
median survival [1]: 64 days | median survival ([2]; 30 mg/kg QDx5): 48 days

CS(=O)(=O)OCCCCOS(C)(=O)=O [Busulfan, reference compound]
T cell editing [3]: 8-31%

C[C@@H]1C[C@H]2[C@@H]3CCC4=CC(=O)C=C[C@]4(C)[C@@]3(F)[C@@H](O)C[C@]2(C)[C@@]1(O)C(=O)CO [Dexamethasone]
median survival ([2]; 5 mg/kg Q3Dx10): 48 days
